# Measurements as given in patent US11357786B2, “Synthetic disugar hydrocarbons as natural analogs to control microbial behaviors” (Syracuse University, priority 2014, dated 2022).
# pIC50: −log10 of the molar value.
# Columns and labels:
# Assay type in all cases: cell-based, Pseudomonas aeruginosa
# [1] = system: wild type PAO1; assay: Swarming motility of wild type PAO1 on soft agar (antagonist assay); conditions: for Swarming of wild type PAO1: 110 μM in soft agar; for Effect on PAO1 swarming: concentration not given
# Protocol: In contrast, the wild type P. aeruginosa produces the rhamnolipids and is capable of swarming on soft agar gel (˜0.5% agar). […] We note that saccharide hydrocarbons may also promote the swarming motility, but such promotions are less unambiguous than the inhibition for wild type PAO1. Such promotion will be unambiguous in the agonist assay using the nonswarming mutant rhlA.
# (§1) Swarm agar plates were based on M8 medium supplemented with 0.2% glucose, 0.5% casamino acid, 1 mM MgSO4 and […]. 17 For each set of experiment all the swarm plates were poured from same batch of agar and allowed to dry for 1 h before inoculation of bacteria. Bacterial culture (3 μl) (wild type PAO1 or rhlA mutant) with OD600 between […] was inoculated on the solidified agar plates. Swarm agar plates were incubated at 37° C. for 12 h and then incubated for additional 12 h at room temp. Chronological images of swarm plates were taken using a camera. To measure swarming area, sizes of the petridish in all swarming images were adjusted to a pre-assigned diameter and images were printed on copying paper (Xerox-business 4200). Weight of a 1 cm^2 copy paper square was roughly ˜8.0 mg. swarming images on the copy paper were cut and weighed, the swarm area was calculated by dividing the weight of image by weight of 1 cm^2 square (8 mg).
# (§2) Swarm agar plates were made using M8 medium supplemented with 0.2% glucose, 0.5% casamino acid, 1 mM MgSO4 and solidified with 0.5% Bacto agar. 24 Bacterial culture with OD600 between 0.4 to 0.6 was inoculated as 3 μl aliquots. Swarm agar plates were incubated at 37° C. for 12 h and then incubated for additional 12 h at rt. For each set of experiment all the swarm plates were poured from same batch of agar and allowed to dry for 1 h before inoculation of bacteria.
# [2] = system: PAO1-EGFP biofilm; assay: Biofilm on steel coupons, fluorescence / CLSM; conditions: 160 μM, 24 h, LB media
# Protocol: A crystal violet (CV) assay was used to measure the amount of PAO1 biofilm formed after 24 h of bacterial inoculation. The fluorescence of green fluorescent proteins (GFP) expressed by PAO1-GFP was measured to directly quantify bacterial adhesion on polystyrene black 96 well plates with and without maltose derivatives after 2 h of bacterial inoculation. To evaluate the potential of maltose derivatives as both anti-biofilm and anti-adhesion agents, they were compared to a brominated furanone (BF8) known to inhibit biofilm formation, and two generic surfactants, sodium dodecyl sulfate (SDS) and tetra (ethylene glycol) monododecyl ether (C12EG4OH). […] P. aeruginosa strain PAO1-EGFP that constitutively producing green fluorescent protein was allowed to form biofilm on sterile steel coupons.
# Confocal laser scanning microscopy (CLSM) based biofilm inhibition assay. Steel coupons (˜1×1 cm) were washed with EtOH, dried under a stream of nitrogen and then sterilized in an autoclave. Overnight culture of PAO1/EGFP (OD600 ˜1.0) grown in LB media (supplemented with 300 μg/mL of carbenicillin), was sub-cultured to OD600˜0.01 and then the OD600 was allowed to reach ˜0.1. Aliquot (600 μL) of PAO1/EGFP subculture OD600˜0.1 was then added into the wells of a 24-well micro titer plate. DSHs were then introduced into the assigned wells to reach a resultant concentration of 160 μM. Bacterial sub-culture with no agent served as positive control. Sterile steel coupons were then placed into the wells and the plates were wrapped with saran wrap and incubated for 24 h at 37° C. under static conditions. After 24 hours, the steel coupons were removed and washed by dipping in PBS buffer (2 washes) and the dried by holding with a forcep and gently dabbing the edge on a bleached paper (KIM wipes). The dried steel coupons were viewed under confocal laser scanning microscope (CLSM). Images were taken at 4 random locations on each steel coupons. Z-stacked images were also taken to determine the relative thickness of the biofilm.
# [3] = system: PAO1 biofilm; assay: Crystal violet based static biofilm inhibition assay, DSHs in LB media (Examples 2 and 4); conditions: for Inhibition of PAO1 biofilm formation (surface attached): 160 μM, 24 h, LB media; for Anti-biofilm activity (biofilm inhibition): concentration not given
# Protocol: The ability of DSHs was tested to inhibit Pseudomonas aeruginosa adhesion, biofilm and to disperse pre-formed biofilm. To quantify the amount of PAO1/EGFP attached on the surface of micro titer plates with or without the synthesized DSHs, fluorescence emitted by green fluorescent proteins (GFP) was quantified (see supporting info for details). Crystal violet (CV) based static biofilm assay (see supporting info) was used to screen the anti-biofilm potencies of all synthesized agents. Both surface attached (SA) (FIG. 17) and total (SA+air-liquid interface) biofilm of P. aeruginosa was quantified. […] CV assays were also used to quantify the amount of P. aeruginosa biofilm remaining after dispersion experiments (FIG. 19). Initially, all agents were screen for anti-biofilm activities (both inhibition and dispersion) at 160 μM. […] All reported biofilm inhibition results are an average of 4 identical wells.
# The effect that DSHs have on the adhesion of PAO1-EGFP on polystyrene surface (microtiter plate) was also examined. PAO1-EGFP is a P. aeruginosa strain that constitutively expresses green fluorescent protein. In the adhesion assays, PAO1-EGFP was grown in microtiter plate for 24-hours in LB-media with (160 μM) or without DSHs. After 24-hours, the fluorescent signal obtained from surface adhered PAO1-EGFP was measured. Percent reduction in fluorescence was calculated by comparing fluorescent signal from PAO1-EGFP grown in LB-media with the signal from wells that had DSHs (FIG. 29A). To study the effect of DSHs on biofilm formation, Pseudomonas aeruginosa (PAO1) was grown in LB-media with (160 μM) or without DSHs at 37° C. under static conditions within wells of microtiter plates. After 24 hours, the surface attached biofilms adhering to the bottom of the wells were stained with crystal-violet dye and the biofilm was quantified by measuring absorbance at 600 nm (OD600). […] Similar to inhibition, the surface attached biofilm after dispersion with DSHs was quantified with crystal-violet staining and absorbance measurement at 600 nm, except that for dispersion, biofilm was first grown for 1 day in just LB-media without any DSHs after which DSHs were added and plates were incubated for additional 24 hours followed by quantification (FIG. 29B).
# Crystal violet (CV) based-biofilm inhibition assay. Inhibitory effect of all synthesized disaccharide hydrocarbons on biofilm formation of Pseudomonas aeruginosa (wild type PAO1) was determined by static biofilm inhibition assay using crystal violet staining. Overnight culture of PAO1 were sub cultured in LB media to OD600 of 0.01 and further the OD600 was allowed to reach ˜0.1. The bacterial sub-culture (200 μL) was then added into the wells of a microtiter plate. Predetermined concentrations of DSHs were added to respective wells containing sub culture by pipetting out fixed volume of sterile aqueous stock solutions (except DβL (7), SPOT, (15) and 2-ODαC (17), which were introduced as stocks prepared in H2O […] and EtOH (90:10) solutions). The microtiter plates were then wrapped in GLAD Press n′ Seal® (saran wrap) and further incubated under stationary conditions for 24 h at 37° C. After 24 h incubation, the culture media was discarded by pipetting carefully (without disrupting biofilm), the plate was then washed once with sterile water (200 μL) and allowed to dry at 37° C. for ˜30 mins. Microtiter plates were then stained with 0.1% aqueous solution of crystal violet (CV) (200 μL) at rt for ˜30 mins. Following this, the CV stain was removed and plate was again washed with sterile water (200 μL). Resultant CV stain in the well was then solubilized by adding 100 μL of 30% AcOH solution (in water) and mixing gently by pipetting.
# [4] = system: nonswarming P. aeruginosa mutant rhlA; assay: Swarming motility of nonswarming rhlA mutant on soft agar (reactivation / agonist assay); conditions: for Swarming reactivation of rhlA mutant: 110 μM in soft agar
# Source text: Using nonswarming mutant to screen for swarming agonists and wild type P. aeruginosa for swarming antagonists. The transposon mutant, rhlA (genotype, rhlA-E08:ISphoA/hah)39 of P. aeruginosa (PAO1), that impairs the gene that is responsible for synthesizing rhamnolipids is completely incapable of a swarming motility. […] Based on this inference, a rhlA mutant was used in a swarming experiment to screen the saccharide-hydrocarbons for agonists that can reactivate the swarming motility of rhlA.
# as §1, §2
# [5] = 85 μM in soft agar (0.5%), 24 h
smiles,measurement,setting,value
"CCCCCCCCCCO[C@@H]1O[C@H](CO)[C@@H](O[C@@H]2O[C@H](CO)[C@@H](O)[C@H](O)[C@H]2O)[C@H](O)[C@H]1O [DeβC (2), decyl-β-cellobioside]",Swarming motility of wild type PAO1,"[1]; 85 μM in soft agar, 24 h",did not show a noticeable effect on the swarming motility
same,Swarming of wild type PAO1,[1]; 24 h,did not significantly affect the swarm pattern
same,Swarming motility of wild type PAO1,"[1]; 160 μM in soft agar, 24 h",weak promotion of swarming motility of wild type PAO1
same,Effect on PAO1 swarming,[1],no apparent effect on PAO1 swarming
same,PAO1-EGFP biofilm on stainless steel coupons (CLSM),[2],bacterial surface coverage comparable to that of control
same,Inhibition of PAO1 biofilm formation (surface attached),[3],insignificant biofilm inhibition and no
same,Inhibition of PAO1 biofilm formation (surface attached),"[3]; listed as 2: DeβC, 160 µM",complete loss of anti-biofilm activity
same,Anti-biofilm activity (biofilm inhibition),[3],did not show significant inhibition of PAO1 biofilm
same,Anti-biofilm activity (biofilm inhibition),[3]; listed as DβC (2),did not show anti-biofilm activities
same,Swarming motility of rhlA mutant,[4]; [5],did not show a noticeable effect on the swarming motility
same,Swarming reactivation of rhlA mutant,[4]; 24 h,incapable of reactivating the swarming
same,Swarming motility of rhlA mutant,"[4]; 160 μM in soft agar, 24 h",weak activation of rhlA swarming motility
same,Reactivation of swarming motility of rhlA mutant,[4]; concentration not given,activated the swarming motility of rhlA mutant
same,Increase of reactivated swarming ring of rhlA with respect to swarming ring of PAO1 without agents,[4]; increasing from 85 to 160 μM,38%
"CCCCCCCCCCCCO[C@@H]1O[C@H](CO)[C@@H](O[C@@H]2O[C@H](CO)[C@H](O)[C@H](O)[C@H]2O)[C@H](O)[C@H]1O [DβL (7), dodecyl-β-lactoside]",Swarming of wild type PAO1,[1]; 24 h,did not significantly affect the swarm pattern
same,PAO1-EGFP biofilm on stainless steel coupons (CLSM),[2],bacterial surface coverage comparable to that of control
same,Inhibition of PAO1 biofilm formation (surface attached),[3],insignificant biofilm inhibition
same,Inhibition of PAO1 biofilm formation (surface attached),"[3]; listed as 7: DβL, 160 µM",severely compromised the anti-biofilm activity
same,Anti-biofilm activity (biofilm inhibition),[3],low activities
same,Swarming reactivation of rhlA mutant,[4]; 24 h,incapable of reactivating the swarming
"CCCCCCCCCCCCO[C@@H]1O[C@H](CO)[C@@H](O[C@@H]2O[C@H](CO)[C@@H](O)[C@H](O)[C@H]2O)[C@H](O)[C@H]1O [DβC (4), dodecyl-β-cellobioside]",Concentration at which tendrils were induced in PAO1,[1],20 µM
same,Swarming motility of wild type PAO1,[1]; 20 μM,stronger inhibition than rhamnolipids
same,Swarming area of PAO1 smaller than control,[1]; 85 μM,~46%
same,Swarming motility of wild type PAO1,"[1]; 85 μM in soft agar, 24 h",causing significant amount of tendril formation
same,Swarming area of wild type PAO1,"[1]; 85 μM, control ~24 cm2",~13 cm2
same,Swarming of wild type PAO1,"[1]; 24 h, listed as 4: DbC",promotes tendril formation
same,Swarming of wild type PAO1,"[1]; 24 h, listed as 4: DβC",induced more tendril formation
same,Effect on PAO1 swarming,[1],induced tendril formation in the swarming pattern of PAO1
same,Concentration of activity reversal for swarming inhibition of PAO1 (transition concentration),[1]; soft agar,~20 to 30 µM
same,PAO1-EGFP biofilm on stainless steel coupons (CLSM),[2],decreased the fluorescence signal significantly
same,Inhibition of PAO1 biofilm formation (surface attached),"[3]; listed as 4: DβC, 160 µM",60%
same,Inhibition of PAO1 biofilm formation (surface attached),[3]; listed as DISC (4),62%
same,pIC50,"[3]; Example 4, FIG. 30",~4.14
same,Concentration at which tendril formation was induced in rhlA mutant,[4],~56 µM
same,Concentration of first inhibition of rhlA swarming,[4],around 50 μM
same,Swarming motility of rhlA mutant,[4]; 40 μM,activated the swarming motility of rhlA mutant
same,Swarming motility of rhlA mutant,[4]; [5],strong reactivation of the swarming motility in rhlA mutant
same,Swarming reactivation of rhlA mutant,"[4]; 24 h, listed as 4: DbC",fully restores swarming with fine tendrils
same,Swarming reactivation of rhlA mutant,"[4]; 24 h, listed as 4: DβC",fully restored the swarming of rhlA
same,Concentration of another activation of rhlA swarming,[4]; after first inhibition,about 160 μM
same,Concentration of activity reversal for swarming promotion of rhlA mutant (transition concentration),[4]; soft agar,^a~45-56 μM
same,Lowest concentration that reactivates swarming of rhlA mutant,[4]; soft agar,≤ 20 µM
same,Concentration of activity reversal for swarming promotion of rhlA mutant (transition concentration),"[4]; soft agar, listed as 4",45 to 56 µM
